Test results reported in patent US20220089592A1, “IMIDAZO[1,2-A]PYRIDINYL DERIVATIVES AS IRAK4 INHIBITORS” (priority 2019, published 2022).

What follows are molecules tested against T1, IRAK4 (Homo sapiens, UniProt Q9NWZ3) (assay: 2-hour 10 μM ATP Biochemical Assay (MesoScale Detection format; IRAK4 phosphorylation of biotin labeled IRAK1 activation loop peptide)). Details: IRAK4 MSD BIOCHEMICAL (10 μM ATP) IC50 (μM), 1 nM IRAK4, 2 hours.
T1 sequence (Q9NWZ3 1-460): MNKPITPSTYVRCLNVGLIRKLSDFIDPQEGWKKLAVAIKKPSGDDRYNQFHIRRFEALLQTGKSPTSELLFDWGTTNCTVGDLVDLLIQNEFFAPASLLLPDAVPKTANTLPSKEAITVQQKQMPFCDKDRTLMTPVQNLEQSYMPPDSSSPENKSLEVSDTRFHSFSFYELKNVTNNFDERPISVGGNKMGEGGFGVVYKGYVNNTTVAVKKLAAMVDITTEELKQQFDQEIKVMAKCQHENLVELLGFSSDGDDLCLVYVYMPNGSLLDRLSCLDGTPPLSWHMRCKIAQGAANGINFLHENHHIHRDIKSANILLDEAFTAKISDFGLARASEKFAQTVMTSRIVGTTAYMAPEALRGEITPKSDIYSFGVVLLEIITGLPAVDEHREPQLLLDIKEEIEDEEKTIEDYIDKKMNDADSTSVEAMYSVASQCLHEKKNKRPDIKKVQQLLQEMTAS
Method: The 2-hour 10 μM ATP Biochemical Assay employs a MesoScale Detection (MSD) format.
The activity is quenched with 11 μl of 70 mM EDTA, pH 8.
To detect the phosphorylated biotinylated peptide substrate, 30 μl of the quenched reaction mixture is added to equivalent wells of a 384 well streptavidin coated MesoScale plate (Meso Scale Discovery #L21SA-1). After a 1 hour incubation of the plate for 1 hour at room temperature with gentle mixing, the plate wells are washed 3 times with 50 mM Tris, pH 7.5, 150 mM NaCl, 0.02% Tween-20.
A 25 μl volume of 1:500 anti-P-Threonine Rabbit polyclonal Antibody plus 1:500 Goat-anti-Rabbit Sulfo Tag Antibody (Meso Scale Discovery R32AB-1) in 50 mM Tris, pH 7.5, 150 mM NaCl, 0.02% Tween-20 plus 2% BSA is then added to each well. After a 1-hour incubation of the plate for 1 hour at room temperature with gentle mixing, the plate wells are washed, 3 times with 50 mM Tris, pH 7.5, 150 mM NaCl, 0.02% Tween-20. A 40 μl volume of 2×MSD Read Buffer (Meso Scale Discovery R92TC-1) is added to each well, and the plate is read immediately in an MSD Plate Reader (Meso Scale Discovery).

Compound | IC50 [µM]
CCOc1cc2nc(C(C)C3CCOC3)cn2cc1NC(=O)c1cccc(C(F)(F)F)n1 (mixture of isomers) [Example 137, N-(7-ethoxy-2-(1-(tetrahydrofuran-3-yl)ethyl)imidazo[1,2-a]pyridin-6-yl)-6-(trifluoromethyl)picolinamide] | 0.001
CCOc1cc2nc(C(F)C3CCOC3)cn2cc1NC(=O)c1cccc(C(F)(F)F)n1 (mixture of isomers) [Example 142, N-(7-ethoxy-2-(fluoro(tetrahydrofuran-3-yl)methyl)imidazo[1,2-a]pyridin-6-yl)-6-(trifluoromethyl)picolinamide] | 0.001
CCOc1cc2nc(C3CC34CCOC4)cn2cc1NC(=O)c1cccc(C(F)F)n1 (mixture of isomers) [Example 171, 6-(difluoromethyl)-N-(7-ethoxy-2-(5-oxaspiro[2.4]heptan-1-yl)imidazo[1,2-a]pyridin-6-yl)picolinamide] | 0.002
C[C@@H]1C[C@@H](Oc2cc3nc(C4CCOCC4)cn3cc2NC(=O)c2cccc(C(F)F)n2)CCO1 (relative stereo) [Example 186, 6-(difluoromethyl)-N-(7-(((2R*,4S*)-2-methyltetrahydro-2H-pyran-4-yl)oxy)-2-(tetrahydro-2H-pyran-4-yl)imidazo[1,2-a]pyridin-6-yl)picolinamide] | 0.001
O=C(Nc1cn2cc(C3CCOCC3)nc2cc1OC1CCCC1)c1cccc(C(F)F)n1 [Example 175, N-(7-(cyclopentyloxy)-2-(tetrahydro-2H-pyran-4-yl)imidazo[1,2-a]pyridin-6-yl)-6-(difluoromethyl)picolinamide] | 0.001
O=C(Nc1cn2cc(C3CCOCC3)nc2cc1OC1CCC1)c1cccc(C(F)F)n1 [Example 176, N-(7-cyclobutoxy-2-(tetrahydro-2H-pyran-4-yl)imidazo[1,2-a]pyridin-6-yl)-6-(difluoromethyl)picolinamide] | 0.001
CCOc1cc2nc(C3CCOCC3)cn2cc1NC(=O)c1ccn(C(C)(C)C)n1 [Example 207, 1-(tert-butyl)-N-(7-ethoxy-2-(tetrahydro-2H-pyran-4-yl)imidazo[1,2-a]pyridin-6-yl)-1H-pyrazole-3-carboxamide] | 0.021
CCOc1cc2nc(C3CCOCC3)cn2cc1NC(=O)c1ccccc1F [Example 212, N-(7-ethoxy-2-(tetrahydro-2H-pyran-4-yl)imidazo[1,2-a]pyridin-6-yl)-2-fluorobenzamide] | 0.022
CCOc1cc2nc(C3CCOCC3)cn2cc1NC(=O)c1ccnc(OC)n1 [Example 226, N-(7-ethoxy-2-(tetrahydro-2H-pyran-4-yl)imidazo[1,2-a]pyridin-6-yl)-2-methoxypyrimidine-4-carboxamide] | 0.035
CCOc1cc2nc(C3CCOCC3)cn2cc1NC(=O)c1cccc(C)c1 [Example 229, N-(7-ethoxy-2-(tetrahydro-2H-pyran-4-yl)imidazo[1,2-a]pyridin-6-yl)-3-methylbenzamide] | 0.025
CCOc1cc2nc(C(C)(C)C#N)cn2cc1NC(=O)c1cccc(C(F)CF)n1 (stereo not shown) [Example 245, N-(2-(2-cyanopropan-2-yl)-7-ethoxyimidazo[1,2-a]pyridin-6-yl)-6-(1,2-difluoroethyl)picolinamide] | 0.002
CCOc1cc2nc(C3CN(CC(F)F)C3)cn2cc1NC(=O)c1ccn(CC(F)F)n1 [Example 291, 1-(2,2-difluoroethyl)-N-(2-(1-(2,2-difluoroethyl)azetidin-3-yl)-7-ethoxyimidazo[1,2-a]pyridin-6-yl)-1H-pyrazole-3-carboxamide] | 0.003
O=C(Nc1cn2cc(C3CCOCC3)nc2cc1F)c1cccc(C(F)F)n1 [Example 293, 6-(difluoromethyl)-N-(7-fluoro-2-(tetrahydro-2H-pyran-4-yl)imidazo[1,2-a]pyridin-6-yl)picolinamide] | 0.031
COc1cc(NC(=O)c2csc(C)n2)cn2cc(C3CCOCC3)nc12 [Example 305, N-(8-methoxy-2-(tetrahydro-2H-pyran-4-yl)imidazo[1,2-a]pyridin-6-yl)-2-methylthiazole-4-carboxamide] | 0.026
CCOc1cc2nc(C3CCOCC3)cn2cc1NC(=O)c1cccc(OCC(F)(F)F)n1 [Example 363, N-(7-ethoxy-2-(tetrahydro-2H-pyran-4-yl)imidazo[1,2-a]pyridin-6-yl)-6-(2,2,2-trifluoroethoxy)picolinamide] | 0.029
Cc1cc(NC(=O)c2cccc(C(F)F)n2)cn2cc(C3CCOCC3)nc12 [Example 410, 6-(difluoromethyl)-N-(8-methyl-2-(tetrahydro-2H-pyran-4-yl)imidazo[1,2-a]pyridin-6-yl)picolinamide 2,2,2-trifluoroacetate] | 0.011
COc1cc(NC(=O)c2cccc(C(F)F)n2)cn2cc(CC3CCOC3)nc12 (stereo not shown) [Example 411, 6-(difluoromethyl)-N-(8-methoxy-2-((tetrahydrofuran-3-yl)methyl)imidazo[1,2-a]pyridin-6-yl)picolinamide] | 0.003
COc1cc(NC(=O)c2ccn(C)n2)cn2cc(C3CCOCC3)nc12 [Example 412, N-(8-methoxy-2-(tetrahydro-2H-pyran-4-yl)imidazo[1,2-a]pyridin-6-yl)-1-methyl-1H-pyrazole-3-carboxamide 2,2,2-trifluoroacetate] | 0.037
COc1nc(NC(=O)c2cccc(C(F)F)n2)cn2cc(C3CCOCC3)nc12 [Example 450, 6-(difluoromethyl)-N-(8-methoxy-2-(tetrahydro-2H-pyran-4-yl)imidazo[1,2-a]pyrazin-6-yl)picolinamide] | 0.003
COc1nc(NC(=O)c2ccn(CC(F)F)n2)cn2cc(C3CCOCC3)nc12 [Example 452, 1-(2,2-difluoroethyl)-N-(8-methoxy-2-(tetrahydro-2H-pyran-4-yl)imidazo[1,2-a]pyrazin-6-yl)-1H-pyrazole-3-carboxamide] | 0.031
COc1nc(NC(=O)c2cccc3c2OCC3)cn2cc(C3CCOCC3)nc12 [Example 453, N-(8-methoxy-2-(tetrahydro-2H-pyran-4-yl)imidazo[1,2-a]pyrazin-6-yl)-2,3-dihydrobenzofuran-7-carboxamide] | 0.005
COc1cc(NC(=O)c2cccc(C(F)F)n2)cn2cc(CC3CCOCC3)nc12 [Example 506, 6-(difluoromethyl)-N-(8-methoxy-2-((tetrahydro-2H-pyran-4-yl)methyl)imidazo[1,2-a]pyridin-6-yl)picolinamide] | 0.004
COc1cc(NC(=O)c2cccc(C(F)F)n2)cn2cc(C34COC(C)(C3)C4)nc12 [Example 508, 6-(difluoromethyl)-N-(8-methoxy-2-(1-methyl-2-oxabicyclo[2.1.1]hexan-4-yl)imidazo[1,2-a]pyridin-6-yl)picolinamide 2,2,2-trifluoroacetate] | 0.002
COc1cc(NC(=O)c2cccc(C(F)F)n2)cn2cc(C3CC4CCC(C3)O4)nc12 (stereo not shown) [Example 509, N-(2-(8-oxabicyclo[3.2.1]octan-3-yl)-8-methoxyimidazo[1,2-a]pyridin-6-yl)-6-(difluoromethyl)picolinamide 2,2,2-trifluoroacetate] | 0.002
COc1cc(NC(=O)c2cccc(C(F)F)n2)cn2cc(C34CC(C#N)(C3)C4)nc12 [Example 511, N-(2-(3-cyanobicyclo[1.1.1]pentan-1-yl)-8-methoxyimidazo[1,2-a]pyridin-6-yl)-6-(difluoromethyl)picolinamide 2,2,2-trifluoroacetate] | 0.004
COc1cc(NC(=O)c2cccc(C(F)F)n2)cn2cc(C34CC(C(F)F)(C3)C4)nc12 [Example 512, 6-(difluoromethyl)-N-(2-(3-(difluoromethyl)bicyclo[1.1.1]pentan-1-yl)-8-methoxyimidazo[1,2-a]pyridin-6-yl)picolinamide 2,2,2-trifluoroacetate] | 0.004
COc1cc(NC(=O)c2cccc(C(F)F)n2)cn2cc(C34COC(C3)C4)nc12 [Example 544, N-(2-(2-oxabicyclo[2.1.1]hexan-4-yl)-8-methoxyimidazo[1,2-a]pyridin-6-yl)-6-(difluoromethyl)picolinamide 2,2,2-trifluoroacetate] | 0.011

Each molecule was assayed against T1, IRAK4 (assay: 2-hour 1 mM ATP IRAK4 Biochemical assay (as above, but with 100 pM IRAK4 and 1 mM ATP)). Details: IRAK4 MSD BIOCHEMICAL (1 mM ATP) IC50 (μM), 100 pM IRAK4, 2 hours.
Summary of the method: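 Run with 100 pM IRAK4 and 1 mM ATP for 2 hours, quenched with EDTA pH 8. Phosphorylated biotinylated peptide captured on streptavidin MSD plates and detected with anti-phosphothreonine antibody plus Sulfo-Tag secondary by electrochemiluminescence.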

Compound | IC50 [µM]
CCOc1cc2nc(C(C)C3CCOC3)cn2cc1NC(=O)c1cccc(C(F)(F)F)n1 (mixture of isomers) [Example 137, N-(7-ethoxy-2-(1-(tetrahydrofuran-3-yl)ethyl)imidazo[1,2-a]pyridin-6-yl)-6-(trifluoromethyl)picolinamide] | 0.001
CCOc1cc2nc(C(F)C3CCOC3)cn2cc1NC(=O)c1cccc(C(F)(F)F)n1 (mixture of isomers) [Example 142, N-(7-ethoxy-2-(fluoro(tetrahydrofuran-3-yl)methyl)imidazo[1,2-a]pyridin-6-yl)-6-(trifluoromethyl)picolinamide] | 0.001
CCOc1cc2nc(C3CC34CCOC4)cn2cc1NC(=O)c1cccc(C(F)F)n1 (mixture of isomers) [Example 171, 6-(difluoromethyl)-N-(7-ethoxy-2-(5-oxaspiro[2.4]heptan-1-yl)imidazo[1,2-a]pyridin-6-yl)picolinamide] | 0.004
C[C@@H]1C[C@@H](Oc2cc3nc(C4CCOCC4)cn3cc2NC(=O)c2cccc(C(F)F)n2)CCO1 (relative stereo) [Example 186, 6-(difluoromethyl)-N-(7-(((2R*,4S*)-2-methyltetrahydro-2H-pyran-4-yl)oxy)-2-(tetrahydro-2H-pyran-4-yl)imidazo[1,2-a]pyridin-6-yl)picolinamide] | 0.001
